In ChEMBL document CHEMBL4715829, “Heterodimeric Rifampicin-Tobramycin conjugates break intrinsic resistance of Pseudomonas aeruginosa to doxycycline and chloramphenicol in vitro and in a Galleria mellonella in vivo model” (Eur J Med Chem, 2019):
Converted amounts (≈) assume the structure as drawn.

Legend:
Pseudomonas aeruginosa [1] = assay: Antibacterial activity against Pseudomonas aeruginosa 91433 assessed as fractional inhibitory concentration index in presence of chloramphenicol incubated for 18 hrs by broth microdilution assay; format: functional
Pseudomonas aeruginosa [2] = assay: Antibacterial activity against Pseudomonas aeruginosa 750 harboring efflux mutant assessed as reduction in bacterial growth incubated for 18 hrs by broth microdilution assay; format: functional
Pseudomonas aeruginosa [3] = assay: Antibacterial activity against Pseudomonas aeruginosa 259-96918 assessed as fractional inhibitory concentration index in presence of chloramphenicol incubated for 18 hrs by broth microdilution assay; format: functional
Enterococcus faecium = assay: Antibacterial activity against Enterococcus faecium ATCC 27270 assessed as reduction in bacterial growth incubated for 18 hrs by broth microdilution assay; format: functional
Pseudomonas aeruginosa [4] = assay: Antibacterial activity against Pseudomonas aeruginosa 262-101856 assessed as fractional inhibitory concentration index in presence of chloramphenicol incubated for 18 hrs by broth microdilution assay; format: functional
[5] = tested on: Staphylococcus epidermidis; assay: Antibacterial activity against methicillin-resistance Staphylococcus epidermidis CAN-ICU 61589 (CAZ>32) assessed as reduction in bacterial growth incubated for 18 hrs by broth microdilution assay; format: functional
Staphylococcus aureus = assay: Antibacterial activity against Staphylococcus aureus ATCC 29213 assessed as reduction in bacterial growth incubated for 18 hrs by broth microdilution assay; format: functional
Pseudomonas aeruginosa [6] = assay: Antibacterial activity against Pseudomonas aeruginosa 259-96918 assessed as fractional inhibitory concentration index in presence of doxycycline incubated for 18 hrs by broth microdilution assay; format: functional
Klebsiella pneumoniae = assay: Antibacterial activity against Klebsiella pneumoniae ATCC 13883 assessed as reduction in bacterial growth incubated for 18 hrs by broth microdilution assay; format: functional
Pseudomonas aeruginosa [7] = assay: Antibacterial activity against Pseudomonas aeruginosa 91433 assessed as fractional inhibitory concentration index in presence of doxycycline incubated for 18 hrs by broth microdilution assay; format: functional
Pseudomonas aeruginosa [8] = assay: Antibacterial activity against Pseudomonas aeruginosa 100036 assessed as fractional inhibitory concentration index in presence of chloramphenicol incubated for 18 hrs by broth microdilution assay; format: functional
Pseudomonas aeruginosa [9] = assay: Antibacterial activity against Pseudomonas aeruginosa 200 harboring efflux mutant assessed as reduction in bacterial growth incubated for 18 hrs by broth microdilution assay; format: functional
Pseudomonas aeruginosa [10] = assay: Antibacterial activity against Pseudomonas aeruginosa 101243 assessed as fractional inhibitory concentration index in presence of chloramphenicol incubated for 18 hrs by broth microdilution assay; format: functional
Pseudomonas aeruginosa [11] = assay: Antibacterial activity against Pseudomonas aeruginosa PAO1 assessed as fractional inhibitory concentration index in presence of Nitrofurantoin incubated for 18 hrs by broth microdilution assay based checkerboard assay; format: functional
Pseudomonas aeruginosa [12] = assay: Antibacterial activity against Pseudomonas aeruginosa PAO1 assessed as fractional inhibitory concentration index in presence of Cefotaxime incubated for 18 hrs by broth microdilution assay based checkerboard assay; format: functional
Pseudomonas aeruginosa [13] = assay: Antibacterial activity against Pseudomonas aeruginosa PAO1 assessed as fractional inhibitory concentration index in presence of Moxifloxacin incubated for 18 hrs by broth microdilution assay based checkerboard assay; format: functional
Pseudomonas aeruginosa [14] = assay: Antibacterial activity against Pseudomonas aeruginosa PAO1 assessed as reduction in bacterial growth by measuring doxycycline MIC at <=[…] uM in presence of doxycycline incubated for 18 hrs by broth microdilution assay based checkerboard assay (reference value: […] microg/ml); format: functional; details: dose microM <=10
[15] = Cytotoxicity against human HepG2 cells assessed as cell viability at <10 uM incubated for 48 hrs prestoblue assay; format: cell-based; details: read-out: Activity
Pseudomonas aeruginosa [16] = assay: Antibacterial activity against Pseudomonas aeruginosa PAO1 assessed as reduction in bacterial growth by measuring meropenem MIC at <=10 uM in presence of meropenem incubated for 18 hrs by broth microdilution assay based checkerboard assay (reference value: 1 microg/ml); format: functional; details: dose microM <=10
[17] = Hemolytic activity in porcine erythrocyte at 1024 ug/ml incubated for 1 hr; format: ADME, cell-based, Sus scrofa; details: pig, porcine erythrocytes, at 1024 µg/mL, read-out: Activity
Pseudomonas aeruginosa [18] = assay: Antibacterial activity against Pseudomonas aeruginosa PAO1 assessed as reduction in bacterial growth by measuring tigecycline MIC at <=10 uM in presence of tigecycline incubated for 18 hrs by broth microdilution assay based checkerboard assay (reference value: 4 microg/ml); format: functional; details: dose microM <=10
Pseudomonas aeruginosa [19] = assay: Antibacterial activity against Pseudomonas aeruginosa PAO1 assessed as reduction in bacterial growth by measuring clindamycin MIC at <=10 uM in presence of clindamycin incubated for 18 hrs by broth microdilution assay based checkerboard assay (reference value: 1024 microg/ml); format: functional; details: dose microM <=10
[20] = Cytotoxicity against human HEK293 cells assessed as cell viability at 50 uM incubated for 48 hrs by prestoblue assay; format: cell-based; details: read-out: Activity
Pseudomonas aeruginosa [21] = assay: Antibacterial activity against Pseudomonas aeruginosa PAO1 assessed as reduction in bacterial growth by measuring fosfomycin MIC at <=[…] uM in presence of fosfomycin incubated for 18 hrs by broth microdilution assay based checkerboard assay (reference value: […] microg/ml); format: functional; details: dose microM <=10
Pseudomonas aeruginosa [22] = assay: Antibacterial activity against Pseudomonas aeruginosa PAO1 assessed as reduction in bacterial growth by measuring cefotaxime MIC at <=[…] uM in presence of cefotaxime incubated for 18 hrs by broth microdilution assay based checkerboard assay (reference value: […] microg/ml); format: functional; details: dose microM <=10
Pseudomonas aeruginosa [23] = assay: Antibacterial activity against Pseudomonas aeruginosa PAO1 assessed as fractional inhibitory concentration index in presence of Trimethoprim incubated for 18 hrs by broth microdilution assay based checkerboard assay; format: functional
Pseudomonas aeruginosa [24] = assay: Antibacterial activity against Pseudomonas aeruginosa PAO1 assessed as fractional inhibitory concentration index in presence of Rifampicin incubated for 18 hrs by broth microdilution assay based checkerboard assay; format: functional
[25] = Cytotoxicity against human HepG2 cells assessed as cell viability at 50 uM incubated for 48 hrs by prestoblue assay; format: cell-based; details: read-out: Activity
Pseudomonas aeruginosa [26] = assay: Antibacterial activity against Pseudomonas aeruginosa PAO1 assessed as reduction in bacterial growth by measuring linezolid MIC at <=10 uM in presence of linezolid incubated for 18 hrs by broth microdilution assay based checkerboard assay (reference value: 1024 microg/ml); format: functional; details: dose microM <=10
[27] = Cytotoxicity against human HEK293 cells assessed as cell viability at <10 uM incubated for 48 hrs by prestoblue assay; format: cell-based; details: read-out: Activity
Pseudomonas aeruginosa [28] = assay: Antibacterial activity against Pseudomonas aeruginosa PAO1 assessed as fractional inhibitory concentration index in presence of Novobiocin incubated for 18 hrs by broth microdilution assay based checkerboard assay; format: functional
Pseudomonas aeruginosa [29] = assay: Antibacterial activity against Pseudomonas aeruginosa PAO1 assessed as reduction in bacterial growth by measuring nitrofurantoin MIC at <=10 uM in presence of nitrofurantoin incubated for 18 hrs by broth microdilution assay based checkerboard assay (reference value: 512 microg/ml); format: functional; details: dose microM <=10
Pseudomonas aeruginosa [30] = assay: Antibacterial activity against Pseudomonas aeruginosa PAO1 assessed as fractional inhibitory concentration index in presence of Erythromycin incubated for 18 hrs by broth microdilution assay based checkerboard assay; format: functional
Pseudomonas aeruginosa [31] = assay: Antibacterial activity against Pseudomonas aeruginosa PAO1 assessed as reduction in bacterial growth by measuring chloramphenicol MIC at <=[…] uM in presence of chloramphenicol incubated for 18 hrs by broth microdilution assay based checkerboard assay (reference value: […] microg/ml); format: functional; details: dose microM <=10
Pseudomonas aeruginosa [32] = assay: Antibacterial activity against Pseudomonas aeruginosa PAO1 assessed as reduction in bacterial growth by measuring tobramycin MIC at <=10 uM in presence of tobramycin incubated for 18 hrs by broth microdilution assay based checkerboard assay (reference value: 1 microg/ml); format: functional; details: dose microM <=10

With `NC[C@H]1O[C@H](O[C@H]2[C@H](O)[C@@H](O[C@H]3O[C@H](CO)[C@@H](O)[C@H](N)[C@H]3O)[C@H](N)C[C@@H]2N)[C@H](N)C[C@@H]1O` [TOBRAMYCIN] the “fractional inhibitory concentration index (FICI)” value (Pseudomonas aeruginosa [1]) was 1.5, the MIC (Pseudomonas aeruginosa [2]) was 0.5 µg/mL (≈ 1.07 µM) and the “fractional inhibitory concentration index (FICI)” value (Pseudomonas aeruginosa [3]) was 1.25. For the same molecule, the MIC (Enterococcus faecium) was 16 µg/mL (≈ 34.2 µM), the “fractional inhibitory concentration index (FICI)” value (Pseudomonas aeruginosa [4]) was “<=1” and the MIC [5] was 2 µg/mL (≈ 4.28 µM). For the same molecule, the MIC (Staphylococcus aureus) was 0.5 µg/mL (≈ 1.07 µM), the “fractional inhibitory concentration index (FICI)” value (Pseudomonas aeruginosa [6]) was 1.125 and the MIC (Klebsiella pneumoniae) was at most 0.25 µg/mL. For the same molecule, the “fractional inhibitory concentration index (FICI)” value (Pseudomonas aeruginosa [7]) was 1.5, the “fractional inhibitory concentration index (FICI)” value (Pseudomonas aeruginosa [8]) was 1.5 and the MIC (Pseudomonas aeruginosa [9]) was 0.5 µg/mL (≈ 1.07 µM). For the same molecule, the “fractional inhibitory concentration index (FICI)” value (Pseudomonas aeruginosa [10]) was 1.5.
With `CO[C@H]1/C=C/O[C@@]2(C)Oc3c(C)c(O)c4c(O)c(c(/C=N/N5CCN(Cc6cn(CCCCO[C@@H]7[C@@H](O[C@H]8O[C@H](CO)[C@@H](O)[C@H](N)[C@H]8O)[C@H](N)C[C@H](N)[C@H]7O[C@H]7O[C@H](CN)[C@@H](O)C[C@H]7N)nn6)CC5)c(O)c4c3C2=O)NC(=O)/C(C)=C\C=C\[C@H](C)[C@H](O)[C@@H](C)[C@@H](O)[C@@H](C)[C@H](OC(C)=O)[C@@H]1C.O=C(O)C(F)(F)F.O=C(O)C(F)(F)F.O=C(O)C(F)(F)F.O=C(O)C(F)(F)F.O=C(O)C(F)(F)F` the “fractional inhibitory concentration index (FICI)” value (Pseudomonas aeruginosa [11]) was 1, the MIC (Pseudomonas aeruginosa [2]) was over 256 µg/mL and the “fractional inhibitory concentration index (FICI)” value (Pseudomonas aeruginosa [12]) was 1.03. The “fractional inhibitory concentration index (FICI)” value (Pseudomonas aeruginosa [13]) was 1.03, the MIC (Pseudomonas aeruginosa [14]) was 1 µg/mL and the MIC (Enterococcus faecium) was 32 µg/mL. The viability at 48 h [15] was over 90%, the MIC [5] was 2 µg/mL and the MIC (Pseudomonas aeruginosa [16]) was 1 µg/mL. For the same molecule, the hemolysis at 1 h, 1024 ug/ml [17] was under 2%, the MIC (Pseudomonas aeruginosa [18]) was 2 µg/mL and the MIC (Pseudomonas aeruginosa [19]) was 512 µg/mL. It also gave an MIC (Staphylococcus aureus) of 4 µg/mL, a viability at 48 h, 50 µM [20] of over 70% and an MIC (Pseudomonas aeruginosa [21]) of 16 µg/mL. The MIC (Pseudomonas aeruginosa [22]) was 16 µg/mL, the MIC (Klebsiella pneumoniae) was over 32 µg/mL and the “fractional inhibitory concentration index (FICI)” value (Pseudomonas aeruginosa [23]) was 1.03. The “fractional inhibitory concentration index (FICI)” value (Pseudomonas aeruginosa [24]) was 0.28, the viability at 48 h, 50 µM [25] was over 70% and the MIC (Pseudomonas aeruginosa [26]) was 1020 µg/mL. The MIC (Pseudomonas aeruginosa [9]) was 256 µg/mL, the viability at 48 h [27] was over 90% and the “fractional inhibitory concentration index (FICI)” value (Pseudomonas aeruginosa [28]) was 0.53. The MIC (Pseudomonas aeruginosa [29]) was 512 µg/mL, the “fractional inhibitory concentration index (FICI)” value (Pseudomonas aeruginosa [30]) was 0.53 and the MIC (Pseudomonas aeruginosa [31]) was 8 µg/mL. For the same molecule, the MIC (Pseudomonas aeruginosa [32]) was 1 µg/mL.
In the case of `CO[C@H]1/C=C/O[C@@]2(C)Oc3c(C)c(O)c4c(O)c(c(/C=N/N5CCN(C)CC5)c(O)c4c3C2=O)NC(=O)/C(C)=C\C=C\[C@H](C)[C@H](O)[C@@H](C)[C@@H](O)[C@@H](C)[C@H](OC(C)=O)[C@@H]1C` [RIFAMPIN], the MIC (Pseudomonas aeruginosa [2]) is reported as 32 µg/mL (≈ 38.9 µM), the MIC (Enterococcus faecium) is reported as at most 0.25 µg/mL and the “fractional inhibitory concentration index (FICI)” value (Pseudomonas aeruginosa [4]) is reported as 1.5. The MIC [5] was at most 0.25 µg/mL, the MIC (Staphylococcus aureus) was at most 0.25 µg/mL and the MIC (Klebsiella pneumoniae) was 16 µg/mL (≈ 19.4 µM). The “fractional inhibitory concentration index (FICI)” value (Pseudomonas aeruginosa [8]) was 1.5, the MIC (Pseudomonas aeruginosa [9]) was 16 µg/mL (≈ 19.4 µM) and the “fractional inhibitory concentration index (FICI)” value (Pseudomonas aeruginosa [10]) was 1.5.
